{"source": "patent US10370647B2", "about": "(priority 2015, dated 2019)", "key": {"KFtx series": {"system": "KFtx series", "assay": "Paclitaxel resistance properties of the KFtx series (surviving cells, Cell Titer-Glo)", "format": "cell-based", "details": "Low and Empty Low (low UCA1 expression); PTx 0 to 500 nM, 48 hours", "protocol": "Paclitaxel resistance properties of the KFtx series comprising the cell line stably expressing UCA1 were compared. The KFtx series were seeded at a cell density of 6×10^3/well on a 96-well plate, and after the cells had been cultured at 37° C. for 12 hours, during which the cells were considered to adhere to the plate, the medium was exchanged with PTx-containing RPMI. The concentrations of PTx were set to be 0, 2, 5, 20, 50, 100, 200, and 500 nM. The cells were further cultured at 37° C. for 48 hours, and the number of surviving cells was then quantified using Cell Titer-Glo (Promega) and was then compared."}, "Low cells": {"system": "Low cells", "format": "in vivo, BALB/cAJcl-nu/nu mice", "details": "KF cell-derived tumors (Low group); 7 days after Paclitaxel 1 mg/ml/mouse"}, "KFtx cells": {"system": "KFtx cells", "format": "in vivo, BALB/cAJcl-nu/nu mice", "details": "KFTx cell-derived tumors; 7 days after Paclitaxel 1 mg/ml/mouse"}}, "data": [{"smiles": "CC(=O)O[C@H]1C(=O)[C@@]2(C)[C@H]([C@H](OC(=O)c3ccccc3)[C@]3(O)C[C@H](OC(=O)[C@H](O)[C@@H](NC(=O)c4ccccc4)c4ccccc4)C(C)=C1C3(C)C)[C@]1(OC(C)=O)CO[C@@H]1C[C@@H]2O", "note": "[PTx, Paclitaxel]", "values": [{"measurement": "number of surviving cells", "setting": "KFtx series", "result": "significantly decreased"}, {"measurement": "tumors disappeared (Rluc imaging)", "setting": "Low cells", "result": "≥ 95", "unit": "%"}, {"measurement": "tumors after administration of PTx (Rluc imaging)", "setting": "KFtx cells", "result": "remained"}]}]}
